Measurements from patent US7514432B2, “Compounds and methods of treating cell proliferative diseases, retinopathies and arthritis” (Exonhit Therapeutics SA, priority 2003, dated 2009).

Experiments:
HCT116 = assay: Cell viability assay (MTT), HCT116; type: cell-based, human; settings: 1% DMSO
Method: (§1) Table 12: 6-day cell viability assay (MTT) in the presence of 10% Fetal Bovine Serum and 1% DMSO, in HMEC1, HCT116, MDA-MB-231, MCF7 and NIH3T3 cell lines. 3 10^3 to 15 10^3 cells were seeded in 48-well plates in growth medium containing 10% FBS, with or without various concentrations of test compounds. Cell cultures were fed every 3 days with the appropriate media. Cell viability was determined on day 6. Data were analyzed and IC50s were calculated from dose-response curves using GraphPad Prism. Results summarized in the tables are mean±SEM of 1 to 8 independent experiments.
(§2) Table 13: 6-day cell viability assay (MTT) in the presence of 0.5% Fetal Bovine Serum and 1% DMSO, in HCT116 and MDA-MB-231 cell lines. 7.5 10^4 to 15 10^4 cells were seeded in 48-well plates in growth medium containing 10% FBS, with or without various concentrations of test compounds. Cell cultures were fed every 3 days with the appropriate media. Cell viability was determined on day 6. Data were analyzed and IC50s were calculated from dose-response curves using GraphPad Prism. Results summarized in the tables are mean±SEM of 1 to 2 independent experiments.
(§3) Table 14: 3-day cell viability assay (MTT) in the presence of 10% Fetal Bovine Serum and 1% DMSO, in DLD1, HCT116, MDA-MB-231, MCF7 and HeLa cells. 7.5 10^3 to 1.5 10^4 cells were seeded in 48-well plates in growth medium containing 10% FBS, with or without various concentrations of test compounds. Data were analyzed and IC50s were calculated from dose-response curves using GraphPad Prism. Results summarized in the tables are mean±SEM of 1 to 7 independent experiments.
(§4) Table 15: 16-hour cell viability assay (MTT) in the presence of 10% Fetal Bovine Serum and 1% DMSO, in HCT116, MDA-MB-231, NIH3T3, HepG2 and primary hepatocytes. 5 10^4 to 10 10^4 cells were seeded in 48-well plates in growth medium containing 10% FBS, with or without various concentrations of test compounds. Data were analyzed and IC50s were calculated from dose-reponse curves using GraphPad Prism. Results summarized in the tables are mean±SEM of 1 to 2 independent experiments.
(§5) In order to determine a compound's effect on cell viability, microculture tetrazolium assays (MTT) were performed as described by Carmichael et al. (1996) with modifications. Four human tumoral cell lines, namely HCT116 colon adenocarcinoma, H460 lung carcinoma, MCF-7 and MDA-MB-231 breast carcinoma cell lines, DLD1 colorectal adenocarcinoma, HeLa adenocarcinoma, HepG2 hepatocellular carcinoma. 3 immortalized but non tumorigenic cell lines, namely NIH3T3 mouse fibroblasts (American Type Culture Collection) and primary hepatocytes (Biopredic international), cultured according to their recommendations together with Human Microvasculature Endothelial Cell line HMEC1 (National Center for Infectious Diseases). Briefly, cells were seeded in 48-well plates 24 hours before drug addition. Cells were treated with 0 to 200 μM (11 concentrations) of compound solubilized in DMSO, adjusting the final concentration of DMSO to 1% in the well. 16 hours, and three or six days after treatment, 0.5 mg/ml MTT (Sigma) was added to the medium and cells were incubated for 1-5 hours at 37° C. before solubilization of formazan crystals in 100% DMSO. Absorbance was measured using a spectrophotometer at a wavelength of 550 nm. Data was analyzed using the GraphPad Prism software (GraphPad Software, Inc.), and IC50 (dose leading to 50% cell death) was calculated from the dose-response curves.

DLD1 = assay: Cell viability assay (MTT), DLD1; type: cell-based; settings: Homo sapiens, DLD-1, 72 h, 10% FBS, 3-day treatment, 1% DMSO
Method: as §3, §5

HMEC1 = assay: Cell viability assay (MTT), HMEC1; type: cell-based, Human; settings: 10% FBS; for IC50: MTT, 6-day treatment, 1% DMSO
Method: as §1, §5

NIH 3T3 = assay: Cell viability assay (MTT), NIH 3T3; type: cell-based, mouse; settings: 10% FBS, 6-day treatment, 1% DMSO
Method: as §1, §4, §5

MDA-MB-231 [1] = assay: Cell viability assay (MTT), MDA-MB-231; type: cell-based, human; settings: 10% FBS, 6-day treatment, 1% DMSO, read-out: IC50 μM, MDA-MB-231
Method: as §1, §2, §3, §4, §5

HMEC-1 cells = assay: Tubule formation (tubulogenesis) assay on Matrigel; type: cell-based, Human
Method: FIG. 5: Tubulogenesis assay (number of junctions). 2 10^4 Cells were plated on Matrigel-coated wells as described in the material and methods. Pictures of each well were taken after a 7-hours incubation. The “number of junctions” parameter was quantitated using the AngioSys software and data were analyzed using GraphPad Prism for IT50 calculation. Values represent the mean±SEM of 2 to 30 independent experiments.
The endothelial cell tube formation assay, or tubulogenesis assay, is an in vitro assay that is widely accepted to accurately reflect number of terminal stages of the angiogenic process such as attachment, migration and differentiation into tubular structures. In this model, endothelial cells are cultured on a monolayer of reconstituted basement membrane components (Matrigel) and form, in a few hours, capillary-lilke structure. Therefore, this system is a useful and powerful tool for rapidly screening anti-angiogenic agents by monitoring inhibition of endothelial cells morphogenesis on extracellular matrix.
HMEC-1 cell line is cultured in MCDB-131 medium (Sigma) supplemented with 15% FBS, 10 ng/ml recombinant human epidermal growth factor (Invitrogen) and 1 μg/ml hydrocortisone. Cells are cultured to 70-80% confluence. A 96-well plate was coated with Matrigel® Basement Membrane Matrix (Becton Dickinson). 2 10^4 HMEC-1 cells were seeded into each well. The test or control compounds were diluted in DMSO and added to the coated plate. The plate was subsequently incubated for 6 to 8 hours at 37° C., 5% CO2 atmosphere to allow tubule formation. The cells were then incubated with 1.25 μg/ml Calcein AM for 15 minutes at 37° C., 5% CO2. Pictures of each well were taken using a fluorescent microscope and a digital camera (Nikon Coolpix 990). Images were analysed using AngioSys software (TCS Cellworks) that allows quantification of the total tubule length and of the number of junctions, two parameters representative of tubule formation/disruption. Data was analyzed using the GraphPad Prism software, and IT50s (dose leading to 50% inhibition of tubulogenesis) was calculated.

MCF7 = assay: Cell viability assay (MTT), MCF7; type: cell-based; settings: Homo sapiens, MCF7, 144 h, 10% FBS, 6-day treatment, 1% DMSO
Method: as §1, §3, §5

NIH3T3 = assay: Boyden chamber migration assay, NIH3T3; type: cell-based, mouse; settings: FBS as chemoattractant
Method: (§6) FIG. 4: Migration assays. (A) Wound healing assay in REF cells. 7.6 10^4 cells were plated on coverslips 48 hours before the experiment. The cells were pre-treated for 30 min. with the compounds, and then a scrape was done using a pipette tip. The scraped coverslips in treatment medium were put under a thermostated microscope coupled to a video camera. Movies were analyzed as described in material and methods, and velocity and total distance covered by the cells were evaluated. Bar graphs represent the mean±SEM of 2 to 4 experiments. (B) Boyden chamber migration assay in HMEC1, NIH3T3 and MDA-MB-231 cells. 5 10^4 to 7.5 10^4 Cells, resuspended in culture medium with or without FBS and with different compound concentrations, were seeded in the upper Boyden blind well on top of 8 μm pore-sized filters. The ability of the cells to migrate through the filter was assayed in the absence or presence of FBS in the lower Boyden chamber. After 16 hours incubation, the medium was removed and replaced with calcein-AM containing medium. After labeling, cells were washed with HBSS and fluorescence was read in a fluorescence plate reader. Fluorescence values were normalized against the fluorescence obtained for the 1% DMSO control. The data plotted are the means±SEM of 2 to 4 independent experiments.
(§7) An essential characteristic of malignant cells is their ability to migrate, invade host tissues and to produce metastases. In order to evaluate the capacity of one compound to affect the ability of tumoral cells to migrate, migration assays were performed using highly invasive tumoral cells MDA-MB-231, endothelial cells HMEC1 or fibroblastic cells NIH3T3. This assay was performed using Falcon HTS Fluoroblock inserts. Culture medium containing Fetal Bovine Serum (FBS; which is used as a chemoattractant) was added to the plate wells and 2 10^4 to 7.5 10^4 cells resuspended in medium without FBS and with 0.1% BSA were added to each insert well. The compound of interest was added to the medium in both the upper and the lower chambers. Plates were incubated for 16 hours at 37° C. Following incubation, the medium was removed from the upper chamber and the entire insert plate was transferred to a second 24-well plate containing 4 μg/ml Calcein-AM™ in medium containing 0.1% BSA. The plates were incubated for one hour at 37° C., rinsed with Hanks Buffered Saline (HBSS). Fluorescence data were collected using Fluoroskan Ascent FL fluorescence plate reader at an excitation wavelength (Ex) of 485 nm and emission wavelength (Em) of 517 nm. Only those labelled cells that passed through the Matrigel layer and the membrane were detected. Data were analyzed using the GraphPad Prism software and IM50s (dose at which 50% inhibition of cell migration is observed) were calculated.

MDA-MB-231 [2] = assay: Boyden chamber migration assay, MDA-MB-231; type: cell-based, human; settings: FBS as chemoattractant; 16 hours
Method: as §6, §7

[3] = Homo sapiens, HCT-116, 144 h, 10% FBS, 6-day treatment
[4] = Homo sapiens, MDA-MB-231, 144 h

IC50 (HCT116; [3]) [µM]	IC50 (MDA-MB-231 [1]) [µM]	IC50 (MDA-MB-231 [1]; [4]) [µM]	SMILES	IC50 (HMEC1; Homo sapiens, HMEC-1, 144 h) [µM]	IC50 (HCT116; 10% FBS, 6-day treatment) [µM]	IC50 (NIH 3T3; Mus musculus, NIH3T3, 144 h) [µM]	IC50 (HMEC1) [µM]	further results
–	–	–	O=c1[nH]cc(F)c(=O)[nH]1 [5FU, 5-FluoroUracile, reference compound]	–	–	–	–	IC50 (HCT116; Homo sapiens, HCT-116, 72 h, 10% FBS, 3-day treatment): 7.83 µM; IC50 (DLD1): 5.44 µM
< 4	5	< 9	O=c1cc(CN2CCOCC2)occ1OCc1ccc(CSc2ccnc3cc(C(F)(F)F)ccc23)cc1 [EHT 2218, 5-((4-((7-(Trifluoromethyl)quinolin-4-ylthio)methyl)phenyl)methoxy)-2-(morpholinomethyl)-4H-pyran-4-one]	19.3	3.7	26	–	IC50 (HCT116; Homo sapiens, HCT-116, 144 h, 0.5% FBS, 6-day treatment): 3.3 µM; fold more active than reference compound CAI in tubulogenesis (HMEC-1 cells; HMEC1 on Matrigel): 4 fold; IC50 (HMEC-1 cells; Homo sapiens, HMEC-1, HMEC1 on Matrigel, 6 to 8 hours, read-out: IC50, tubulogenesis (number of junctions)): 30.8 µM
–	8.8	< 9	CCN(CC)C(=O)N1CCN(Cc2cc(=O)c(OCCCCCSc3ccnc4cc(C(F)(F)F)ccc34)co2)CC1 [EHT 5743, 4-((5-(5-(7-(Trifluoromethyl)quinolin-4-ylthio)pentyloxy)-4-oxo-4H-pyran-2-yl)methyl)-N,N-diethylpiperazine-1-carboxamide]	< 10	–	2.4	8	difference of activity in HMEC1 cells as compared to HCT116 cells (HMEC1; MTT 6 days, compounds most active in HCT116): 20 fold; IC50 (MCF7): 1.2 µM
–	–	–	CN1CCN(Cc2cc(=O)c(OCCCCCSc3ccnc4cc(C(F)(F)F)ccc34)co2)CC1 [EHT 7365, 2-(4-Methyl-piperazin-1-ylmethyl)-5-[5-(7-trifluoromethyl-quinolin-4-ylsulfanyl)-pentyloxy]-4H-pyran-4-one]	–	5.4	6.5	8.3	IC50 (MDA-MB-231 [2]): 3.9 ± 0.8 µM; IC50 (NIH3T3; 16 hours): 6.1 ± 1.1 µM
18.9	–	22.5	Cc1[nH]c(/C=C2\C(=O)Nc3ccccc32)c(C)c1CCC(=O)O [SU-6668, reference compound]	36	–	35.7	–	potency in tubulogenesis assay (HMEC-1 cells; VEGF and FGF free conditions): weakly potent

SMILES	IC50 (HCT116; [3]) [µM]	IC50 (MDA-MB-231 [1]) [µM]	IC50 (MDA-MB-231 [1]; [4]) [µM]	IC50 (HMEC1; Homo sapiens, HMEC-1, 144 h) [µM]	IC50 (HCT116; 10% FBS, 6-day treatment) [µM]	IC50 (NIH 3T3; Mus musculus, NIH3T3, 144 h) [µM]	IC50 (HMEC1) [µM]	further results
O=c1cc(CN2CCOCC2)occ1OCCCCCSc1ccnc2cc(C(F)(F)F)ccc12 [EHT 7168, 2-Morpholin-4-ylmethyl-5-[5-(7-trifluoromethyl-quinolin-4-ylsulfanyl)-pentyloxy]-4H-pyran-4-one]	–	9.8	–	–	4.9	–	25.2	IC50 (NIH 3T3): 12.7 µM; IC50 (NIH3T3; Mus musculus, NIH3T3, 16 h): 16.4 ± 3.4 µM
